Where two headings read alike, the source gives them in different places.
Columns and labels:
MRI-H-254 tumors = assay type: in vivo, mice; conditions: for % T/C on day 20 / % T/C on day 23 / % T/C on day 26 / % T/C on day 30 / % T/C on day 34 / % T/C on day 36 / % T/C on day 43 / % T/C on day 49 / % T/C on day 56 / % T/C on day 63: PM00104 0.90 IV, DPI 20, 27, 34
Experimental: Female athymic nude mice (Harlan Sprague Dawley, Madison, Wis.) were utilized for all experiments. Animals were housed in ventilated rack caging with food and water ad libitum. The mice were acclimated for at least 5 days prior to tumor implantation with tumor fragments.
Bacterial culture was taken on cells used to implant the study.
Treatments were initiated on DPI 20.
5-FU was provided in the form of injection vials which was diluted with 0.9% sterile Saline.
(§1) Tumor size measurements were recorded twice weekly from the treatment initiation until the termination of the study.
(§2) Mean, standard deviation and standard error of the mean were determined for tumor volume for all animal groups at all assessments. Student's t test was performed on tumor volumes at each measurement day, including at the end of the study, to determine whether there were any statistically significant differences between combination treatment groups and single monotherapy treatment groups.

[1] = system: SW1990 human pancreatic carcinoma cell line; assay: IC50 determination, MTS assay, 72 h (Example 3); assay type: cell-based; conditions: 72 hours of drug exposure
Experimental: (§3) Gemcitabine (Gemzar®) was the agent evaluated in combination with PM00104. The human pancreatic carcinoma cell lines selected for this assay were the following: BxPC-3, PANC-1, MIA PaCA-2, and SW1990 cell lines. BxPC-3 cell line was grown in RPMI 1640 medium supplemented with 10% FBS, 1.5 g/L sodium bicarbonate, 4.5 g/L glucose, 10 mM HEPES, 1 mM sodium pyruvate, and 2 mM L-glutamine. PANC-1 cell line was grown in DMEM supplemented with 10% FBS, 1.5 g/L sodium bicarbonate, 4.5 g/L glucose, and 4 mM L-glutamine. MIA PaCA-2 cell line was grown in DMEM supplemented with 10% FBS, 1.5 g/L sodium bicarbonate, 4.5 g/L glucose, 2.5% Horse Serum, and 2 mM L-glutamine. SW1990 cell line was grown in RPMI 1640 medium supplemented with 10% FBS and 2 mM L-glutamine.
(§4) a. […] It was used the same methodology as those disclosed in Example 1.
(§5) IC50 values were calculated from an average of three assays for each of the test agents.

[2] = system: BxPC-3 human pancreatic carcinoma cell line; assay: IC50 determination, MTS assay, 72 h (Example 3); assay type: cell-based; conditions: 72 hours of drug exposure
Experimental: as §3, §4, §5

PLC/PRF/5 tumors = assay type: in vivo, mice
Experimental: Female athymic nude mice (Harlan Sprague Dawley, Madison, Wis.) were utilized for all experiments. Animals were housed in ventilated rack caging with food and water ad libitum. The mice were acclimated for at least 5 days prior to tumor implantation with a tumor cell suspension.
The tumor model used in these studies was PLC/PRF/5 cell line, which was obtained from the ATCC (Manassas, Va.).
PLC/PRF/5 were grown in Eagle's minimum essential medium supplemented with 10% FBS and 1% L-glutamine. Each animal was implanted SC on the right flank, using a 13G trochar and 1 mL syringe, with 5×10^6 PLC/PRF/5 cells in a 0.2 mL suspension of 50% Matrigel and 50% serum free MEM medium, without antibiotics. Bacterial cultures were performed on aliquots of the cells prepared for implantation.
Treatments were initiated on DPI 14.
as §1, §2

H-Meso-1 tumors = assay type: in vivo, mice; conditions: G2 PM00104 0.9 mg/kg/day IV
Experimental: Female athymic nude mice (Harlan Sprague Dawley, Madison, Wis.) were utilized for all experiments. Animals were housed in ventilated rack caging with food and water ad libitum. The mice were acclimated for at least 5 days prior to tumor implantation.
The tumor model used in this study was H-Meso-1 cell line which is a human mesothelioma cell line obtained from the DTP, DCTD tumor repository. […] Cells were implanted SC into study mice using a 1 ml syringe with a 13G trocar: 5×10^6 cells/mouse in 0.2 ml 50% Matrigel/50% RPMI medium of H-Meso-1 without serum or antibiotics. Bacterial culture was taken on cells used to implant the study.
Treatments were initiated on DPI 6.
Tumor size measurements were recorded 2-3 times/week from the treatment initiation until the termination of the study.
as §2

[3] = 5-FU 100 IP mg/kg/day (G2, G3, G5)
[4] = day 20, PM00104 0.9 and 5-FU 50 mg/kg/day
[5] = day 20, PM00104 0.9 and 5-FU 100 mg/kg/day
[6] = day 23, PM00104 0.9 and 5-FU 50 mg/kg/day
[7] = day 23, PM00104 0.9 and 5-FU 100 mg/kg/day
[8] = day 26, PM00104 0.9 and 5-FU 50 mg/kg/day
[9] = day 26, PM00104 0.9 and 5-FU 100 mg/kg/day
[10] = day 30, PM00104 0.9 and 5-FU 50 mg/kg/day
[11] = day 30, PM00104 0.9 and 5-FU 100 mg/kg/day
[12] = day 34, PM00104 0.9 and 5-FU 50 mg/kg/day
[13] = day 34, PM00104 0.9 and 5-FU 100 mg/kg/day
[14] = day 36, PM00104 0.9 and 5-FU 50 mg/kg/day
[15] = day 36, PM00104 0.9 and 5-FU 100 mg/kg/day
[16] = day 43, PM00104 0.9 and 5-FU 50 mg/kg/day
[17] = day 43, PM00104 0.9 and 5-FU 100 mg/kg/day
[18] = day 49, PM00104 0.9 and 5-FU 50 mg/kg/day
[19] = day 49, PM00104 0.9 and 5-FU 100 mg/kg/day
[20] = day 56, PM00104 0.9 and 5-FU 50 mg/kg/day
[21] = day 56, PM00104 0.9 and 5-FU 100 mg/kg/day
[22] = day 63, PM00104 0.9 and 5-FU 50 mg/kg/day
[23] = day 63, PM00104 0.9 and 5-FU 100 mg/kg/day
[24] = day 14, PM00104 0.90, sorafenib 60 mg/kg/day
[25] = day 18, PM00104 0.90, sorafenib 60 mg/kg/day
[26] = day 22, PM00104 0.90, sorafenib 60 mg/kg/day
[27] = day 25, PM00104 0.90, sorafenib 60 mg/kg/day
[28] = day 28, PM00104 0.90, sorafenib 60 mg/kg/day
[29] = day 32, PM00104 0.90, sorafenib 60 mg/kg/day
[30] = day 35, PM00104 0.90, sorafenib 60 mg/kg/day
[31] = day 39, PM00104 0.90, sorafenib 60 mg/kg/day
[32] = day 42, PM00104 0.90, sorafenib 60 mg/kg/day

## O=c1[nH]cc(F)c(=O)[nH]1 [5-FU, 5-fluorouracil]
MRI-H-254 tumors; 5-FU 50 IP mg/kg/day (G4, G6)
  % T/C on day 20: 96.0%
  % T/C on day 23: 52.3%
  % T/C on day 26: 47.9%
  % T/C on day 30: 55.3%
  % T/C on day 34: 45.0%
  % T/C on day 36: 45.7%
  % T/C on day 43: 58.1%
  % T/C on day 49: 100.0%
  % T/C on day 56: 117.6%
  % T/C on day 63: 123.9%
MRI-H-254 tumors; [3]
  % T/C on day 20: 101.8%
  % T/C on day 23: 55.2%
  % T/C on day 26: 47.1%
  % T/C on day 30: 36.3%
  % T/C on day 34: 31.6%
  % T/C on day 36: 23.0%
  % T/C on day 43: 30.9%
  % T/C on day 49: 54.6%
  % T/C on day 56: 96.3%
  % T/C on day 63: 107.8%
MRI-H-254 tumors; [4]
  % Inhibition: 4.0%
MRI-H-254 tumors; [5]
  % Inhibition: −1.8%
MRI-H-254 tumors; [6]
  % Inhibition: 47.7%
MRI-H-254 tumors; [7]
  % Inhibition: 44.8%
MRI-H-254 tumors; [8]
  % Inhibition: 52.1%
MRI-H-254 tumors; [9]
  % Inhibition: 52.9%
MRI-H-254 tumors; [10]
  % Inhibition: 44.7%
MRI-H-254 tumors; [11]
  % Inhibition: 63.7%
MRI-H-254 tumors; [12]
  % Inhibition: 55.0%
MRI-H-254 tumors; [13]
  % Inhibition: 68.4%
MRI-H-254 tumors; [14]
  % Inhibition: 54.3%
MRI-H-254 tumors; [15]
  % Inhibition: 77.0%
MRI-H-254 tumors; [16]
  % Inhibition: 41.9%
MRI-H-254 tumors; [17]
  % Inhibition: 69.1%
MRI-H-254 tumors; [18]
  % Inhibition: 0.0%
MRI-H-254 tumors; [19]
  % Inhibition: 45.4%
MRI-H-254 tumors; [20]
  % Inhibition: −17.6%
MRI-H-254 tumors; [21]
  % Inhibition: 3.7%
MRI-H-254 tumors; [22]
  % Inhibition: −23.9%
MRI-H-254 tumors; [23]
  % Inhibition: −7.8%

## Nc1ccn([C@@H]2O[C@H](CO)[C@@H](O)C2(F)F)c(=O)n1 [Gemcitabine, gemcitabine]
[1]
  IC50: 0.012 µg/mL
[2]
  IC50: 0.84 µg/mL

## COc1c(C)cc2c(c1O)[C@@H]1[C@@H]3Cc4c(OC(C)=O)c(C)c5c(c4[C@H](CNC(=O)/C=C/c4cccc(C(F)(F)F)c4)N3[C@@H](O)[C@H](C2)N1C)OCO5 [PM00104]
MRI-H-254 tumors; [3]
  % T/C on day 20: 98.7%
  % T/C on day 23: 95.9%
  % T/C on day 26: 83.7%
  % T/C on day 30: 75.3%
  % T/C on day 34: 53.1%
  % T/C on day 36: 46.5%
  % T/C on day 43: 26.9%
  % T/C on day 49: 36.7%
  % T/C on day 56: 50.6%
  % T/C on day 63: 81.3%
MRI-H-254 tumors; [4]
  % Inhibition: 1.3%
MRI-H-254 tumors; [5]
  % Inhibition: 1.3%
MRI-H-254 tumors; [6]
  % Inhibition: 4.1%
MRI-H-254 tumors; [7]
  % Inhibition: 4.1%
MRI-H-254 tumors; [8]
  % Inhibition: 16.3%
MRI-H-254 tumors; [9]
  % Inhibition: 16.3%
MRI-H-254 tumors; [10]
  % Inhibition: 24.7%
MRI-H-254 tumors; [11]
  % Inhibition: 24.7%
MRI-H-254 tumors; [12]
  % Inhibition: 46.9%
MRI-H-254 tumors; [13]
  % Inhibition: 46.9%
MRI-H-254 tumors; [14]
  % Inhibition: 53.5%
MRI-H-254 tumors; [15]
  % Inhibition: 53.5%
MRI-H-254 tumors; [16]
  % Inhibition: 73.1%
MRI-H-254 tumors; [17]
  % Inhibition: 73.1%
MRI-H-254 tumors; [18]
  % Inhibition: 63.3%
MRI-H-254 tumors; [19]
  % Inhibition: 63.3%
MRI-H-254 tumors; [20]
  % Inhibition: 49.4%
MRI-H-254 tumors; [21]
  % Inhibition: 49.4%
MRI-H-254 tumors; [22]
  % Inhibition: 18.7%
MRI-H-254 tumors; [23]
  % Inhibition: 18.7%
[1]
  IC50: 0.0051 µg/mL
[2]
  IC50: 0.036 µg/mL
PLC/PRF/5 tumors; day 14, PM00104 0.45, sorafenib 60 mg/kg/day
  % T/C: 106.5%
PLC/PRF/5 tumors; [24]
  % Inhibition: −0.8%
  % T/C: 100.8%
PLC/PRF/5 tumors; day 18, PM00104 0.45, sorafenib 60 mg/kg/day
  % T/C: 71.1%
PLC/PRF/5 tumors; [25]
  % Inhibition: 21.2%
  % T/C: 78.8%
PLC/PRF/5 tumors; day 22, PM00104 0.45, sorafenib 60 mg/kg/day
  % T/C: 73.5%
PLC/PRF/5 tumors; [26]
  % Inhibition: 33.3%
  % T/C: 66.7%
PLC/PRF/5 tumors; day 25, PM00104 0.45, sorafenib 60 mg/kg/day
  % T/C: 80.4%
PLC/PRF/5 tumors; [27]
  % Inhibition: 29.0%
  % T/C: 71.0%
PLC/PRF/5 tumors; day 28, PM00104 0.45, sorafenib 60 mg/kg/day
  % T/C: 67.3%
PLC/PRF/5 tumors; [28]
  % Inhibition: 47.1%
  % T/C: 52.9%
PLC/PRF/5 tumors; day 32, PM00104 0.45, sorafenib 60 mg/kg/day
  % T/C: 79.7%
PLC/PRF/5 tumors; [29]
  % Inhibition: 54.4%
  % T/C: 45.6%
PLC/PRF/5 tumors; day 35, PM00104 0.45, sorafenib 60 mg/kg/day
  % T/C: 71.7%
PLC/PRF/5 tumors; [30]
  % Inhibition: 45.1%
  % T/C: 54.9%
PLC/PRF/5 tumors; day 39, PM00104 0.45, sorafenib 60 mg/kg/day
  % T/C: 89.2%
PLC/PRF/5 tumors; [31]
  % Inhibition: 22.9%
  % T/C: 77.1%
PLC/PRF/5 tumors; day 42, PM00104 0.45, sorafenib 60 mg/kg/day
  % T/C: 85.7%
PLC/PRF/5 tumors; [32]
  % Inhibition: 29.9%
  % T/C: 70.1%
H-Meso-1 tumors
  % T/C on day 6: 98.5%
  % T/C on day 7: 80.3%
  % T/C on day 9: 69.7%
  % T/C on day 12: 63.3%
  % T/C on day 14: 62.9%
  % T/C on day 16: 62.1%
  % T/C on day 19: 55.1%
  % T/C on day 22: 51.6%
  % T/C on day 26: 56.0%
  % T/C on day 29: 64.9%
H-Meso-1 tumors; day 6
  % Inhibition: 1.5%
H-Meso-1 tumors; day 7
  % Inhibition: 19.7%
H-Meso-1 tumors; day 9
  % Inhibition: 30.3%
H-Meso-1 tumors; day 12
  % Inhibition: 36.7%
H-Meso-1 tumors; day 14
  % Inhibition: 37.1%
H-Meso-1 tumors; day 16
  % Inhibition: 37.9%
H-Meso-1 tumors; day 19
  % Inhibition: 44.9%
H-Meso-1 tumors; day 22
  % Inhibition: 48.4%
H-Meso-1 tumors; day 26
  % Inhibition: 44.0%
H-Meso-1 tumors; day 29
  % Inhibition: 35.0%

— patent US20110070232A1, “Combination Therapy with an Antitumor Alkaloid” (Pharma Mar, S.A., priority 2008, published 2011)
